The conditions of data set [1]: IR700 at 689 nm; Photofrin 630 nm; Foscan 652 nm; NPe6/Laserphyrin 654 nm; cited from earlier work.
The subject of another data set is MC38-luc tumor. The experiment in a line: In vivo efficacy of L-NaAA alone. Also noted: species or system mice.
The subject of another data set is LL/2-luc tumors. The experiment in a line: CD44-targeted NIR-PIT with or without L-NaAA. It is filed as in vivo, C57BL/6 mice. An excerpt: (§1) The images were taken pre- and post-NIR-PIT. ROIs were placed on the tumor. […] ROIs were placed over the entire tumor.
A further data set has as its system A431 GFP-luc tumor. The experiment in a line: Panitumumab NIR-PIT with or without L-NaAA. It is filed as in vivo, athymic mice. To be noted: with L-NaAA.
From the text: as §1

In data set [2] the test system is MC38-luc tumors. As to the method:
ROIs were placed over the entire tumor. […] (A) Treatment schedule.
as §1
Scout images were obtained to accurately locate the tumor.
Single-cell suspensions from tumor samples were pre-pared using following protocol. Whole tumors were incubated in the RPMI 1640 medium (Thermo Fisher Scientific) containing collagenase type IV (1 mg mL^−1; Thermo Fisher Scientific) and DNase I (20 μg mL^−1; Millipore Sigma, Burlington, MA) in 37° C. for 30 minutes, then gently cut with scissors and mashed with the back of the plunger of 3 mL syringe. The tissues were passed through a 70 μm cell strainer (Corning, Corning, NY). A total of 3.0×10^6 cells was stained and data for 5.0×10^5 cells were collected for each tumor. The cells were stained with anti-CTLA4 antibody (Clone; UC10-4B9) from Thermo Fisher Scientific. To distinguish live cells from dead cells, cells were also stained with LIVE/DEAD Fixable Dead Cell Stain (Thermo Fisher Scientific). The fluorescence of the cells was then analyzed with the flow cytometer (FACSLyric, BD Biosciences) and FlowJo software (FlowJo LLC). Dead cells were removed from analysis based on FSC, SSC, and staining with LIVE/DEAD Fixable Dead Cell Stain.

In data set [3] the test system is MC38-luc tumors. The experiment in a line: CD44-targeted NIR-PIT with or without L-NaAA.
Description: Photon counts were evaluated with the Photon Imager (Biospace Lab) using relative light units. ROIs were placed over the entire tumor. The counts per minute of relative light units were calculated using M3 Vision Software (Biospace Lab) and converted to the percentage based on those before NIR-PIT using the following formula: [(relative light units after treatment)/(relative light units before treatment)×100(%)]. Chemiluminescent images were continually recorded 1 and 3 hours after NIR-PIT.
(§2) The APC was injected 6 days after inoculation of cancer cells into C57BL/6 mice. […] NIR light (690 nm, 150 mW cm-2, 50 J cm-2) was exposed on the next day. […] Upon NIR light exposure, the normal tissue adjacent to the tumor was covered with aluminum foil to ensure that the NIR light exposure is limited in tumor site. Dorsal fluorescence images of IR700 were obtained with the 700 nm fluorescence channel of the Pearl Imager (LI-COR Biosciences). The images were taken pre- and post-NIR-PIT. ROIs were placed on the tumor. The dorsal edema formation of treated mouse 1 day after NIR light irradiation was imaged by a camera. Acute treatment efficacy was evaluated with BLI analysis, in which, D-luciferin (3 mg mouse-1; Gold Biotechnology) was intraperitoneally injected into mice. Luciferase activity was analyzed with a BLI system (Biospace Lab) using relative light units. ROIs were placed over the entire tumor. The counts per minute of relative light units were calculated using M3 Vision Software (Biospace Lab) and converted to the percentage based on those before NIR-PIT using the following formula: [(relative light units after treatment)/(relative light units before treatment)×100(%)]. Bioluminescence im-ages were continually recorded until the onset of depilation-induced skin pigmentation precluded accurate measurement.
Under pentobarbital anesthesia, MRI was performed on a 3-T scanner using an in-house 10-inch circle shaped mouse receiver coil array (Elition 3T; Philips Medical Systems, Best, Nether-lands) 1 day after NIR light exposure. Scout images were obtained to accurately locate the tumor. All mice underwent T2-weighted fat-saturation imaging (T2WI fat-sat) and short-TI inversion recovery imaging (STIR). All images were obtained in the coronal plane and T2WI fat-sat images were also obtained in the axial plane. All images were analyzed using Image J software, and 3D imaging were recon-structed. The high signal intensity area derived from each image in T2WI fat-sat and STIR was calculated by Image J.
In a further data set the test system is MOC2-luc tumors. The experiment in a line: CD44-targeted NIR-PIT with or without L-NaAA.
The subject of the next data set is MDAMB468 GFP-luc cells. The experiment in a line: In vitro NIR-PIT with reducing agents, PI staining. To be noted: 10 mM NaN3.
A further data set has as its system A431 GFP-luc cells. The experiment in a line: In vitro NIR-PIT with reducing agents, PI staining. To be noted: for cytotoxicity of Pan-PIT in the presence of NaN3: 10 mM NaN3.
The conditions of data set [4]: IR700 with L-cysteine, NaN3 added.
The procedure of data set [5]: Before and after each irradiation, the 700 nm fluorescence intensity was acquired by a fluorescence imager (Pearl Imager, LI-COR Bioscience, Lincoln, NE, USA). Pearl Cam Software (LI-COR Biosciences) was used for analyzing fluorescence. The same regions of interest (ROIs) were put on the solution in each tube, and then mean 700 nm fluorescence intensity was measured. The appearance of the tube before and after NIR light irradiation was imaged. All the experiments were carried out at RT.

The next data set deals with LL2-luc tumor. To be noted: IL15 1 ug i.p. preconditioning + anti-PD-L1-IR700 + NIR light 50 J/cm2.
The conditions of data set [6]: dose of 3 mg/kg for melanoma therapy; cited from earlier work.
The subject of a further data set is mEERL-hEGFR cells. The experiment in a line: In vitro NIR-PIT, PI staining and MTT assay. It is filed as cell-based, murine. As to the method: After washing with PBS, phenol-red-free RPMI 1640 medium was added. NIR light (690 nm) was irradiated to cancer cells with an ML7710 laser system (Modulight, Tampere, Finland) at a power density of 150 mW/cm^2. One hour after NIR-PIT, the cells were collected with trypsin, and stained with propidium iodide (PI, 1 μg/mL) at room temperature for 5 minutes, and then assessed for PI positivity on a BD FACSCalibur (BD Biosciences) using CellQuest software (BD Biosciences) using FlowJo software (FlowJo LLC). To assess cell viability, cell proliferation was evaluated by 3-(4,5-Dimethyl-2-thiazolyl)-2,5-diphenyl-2H-tetrazolium bromide (MTT) assay. Cells were incubated and treated, as described above. One hour after NIR-PIT, the medium was removed and 500 μl of MTT reagent (SIGMA Aldrich; 0.5 mg/ml) was added to each well. After 1 hour incubation, the supernatant was removed and 500 μL of 2-propanol was added to each well to dissolve the crystal formazan dye. After transferring 100 μL of the supernatant to 96 well plate each, absorbance was measured at 570 nm on a microplate reader (Synergy™ H1). For relative quantification, the value of absorbance in each group was normalized to that in the control group.
(In general: Formazan colour is commonly taken as a measure of viable cells.)

Data set [7] has as its system mEERL-hEGFR tumors. The experiment in a line: Histologic analysis (H-E staining) 1 hour after NIR-PIT. The class given is in vivo, C57BL/6 mice. The settings on record: tumors harvested 1 hour after light exposure. The text has this:
Tumors from mEERL-hEGFR, MC38-luc, and LLC tumors were harvested, formalin-fixed and paraffin-embedded, and sectioned at […]. Following standard hematoxylin and eosin (HE) staining, bright-light photomicrographs were obtained using Mantra Quantitative Pathology Workstation (PerkinElmer).

In data set [8] the test system is mEERL-hEGFR tumors. Also noted: tumor volume: dose or concentration left out as unconfirmed.
Description: The lower part of the body of the mice was shaved before NIR light irradiation and image analysis. Tumors were established via subcutaneous injection of 1×10^6 cells in the right or both side of dorsal flank for each model. Mice with tumors reaching approximately 50-100 mm^3 in volume were used for the experiments. Mice were monitored each day, and tumor volume (tumor volume=length×width^2×0.5) was measured twice a week until the tumor volume reached 2,000 mm^3, whereupon the mice were euthanized with inhalation of carbon dioxide gas. In a bilateral model, the mice were euthanized when either tumor reached its humane endpoint. Tumor disappearance for 4 weeks or longer after treatment was defined as complete remission.
The mixed antibody/APC was injected 6 days after inoculation of cancer cells into C57BL/6 mice. Twenty-four hours after administration, NIR light (690 nm, 150 mW/cm^2) was irradiated to tumors at 50 J/cm^2 in all groups. The surface of the mouse other than the tumor was covered with aluminum foil. […] In the bilateral model, NIR light (690 nm, 150 mW/cm^2) was given only to right-sided tumors at 50 J/cm^2 and the remainder of the mouse (including the left-sided tumor) was covered with aluminum foil during irradiation.
Setting [9] is: CD44-targeted NIR-PIT with L-NaAA.
The mark [10] stands for this setting: with or without L-NaAA injection.
[11] abbreviates: 1 day after CD44-targeted NIR-PIT.

Description for A431 GFP-luc cells: (§3) A431 GFP-luc or MDAMB468 GFP-luc cells (4×10^5) were seeded into 12-well plates, and incubated for 24 hours, and then exposed to media containing panitumumab-IR700 (10 μg mL^−1) for 1 hour at 37° C. […] NIR light (690 nm, 150 mW cm^−2, 1 or 2 J cm^−2 for A431 GFP-luc, 20 J cm^−2 for MDAMB468 GFP-luc) was irradiated to cancer cells. For flow cytometric analyses, the cells were collected with trypsin one hour after NIR light exposure. Cells were then stained with propidium iodide (PI, 1 μg mL^−1) at RT for 5 minutes. The fluorescence of the cells was then analyzed with a flow cytometer (FACSCalibur, BD Biosciences, San Jose, CA, USA) and FlowJo software (BD Biosciences).
Description for LL2-luc tumor: Tumors were established in mice by administration of 5×10^5 LL2 cells s.c. Four days later, IL15 (1 ug i.p.) was administered, followed one day later with anti-PD-L1-IR700 (or vehicle control), followed with or without NIR light (50 J/cm2) another day later.
Description for MDAMB468 GFP-luc cells: as §3
Description for MOC2-luc tumors: as §2

Turning to `Oc1cccc(-c2c3nc(c(-c4cccc(O)c4)c4ccc([nH]4)c(-c4cccc(O)c4)c4nc(c(-c5cccc(O)c5)c5ccc2[nH]5)CC4)C=C3)c1` [Foscan®, meta-tetrahydroxyphenylchlorin], the extinction coefficient in data set [1] is 22000 M⁻¹ cm⁻¹.
For the compound `O=C1O[C@H]([C@@H](O)CO)C([O-])=C1O.[Na+]` [L-NaAA, L-sodium ascorbate], the “tumor growth (BLI)” value with MC38-luc tumor is “not to affect tumor growth”. In addition, the results for the body weight entry in the data set on LL/2-luc tumors (setting [9]), with MC38-luc tumors [3] (NIR-PIT with vs without L-NaAA) and in the data set with MOC2-luc tumors (setting [9]) were “no significant difference in body weight was detected”, “No significant difference in body weight” and “no significant difference in body weight was detected”, respectively. In addition, the “antitumor effects of CD44-targeted NIR-PIT (BLI)” value with LL/2-luc tumors (with L-NaAA) and in the data set with MOC2-luc tumors (with L-NaAA) was “not changed” throughout. Moreover, the “edema formation 1 day after NIR-PIT” value in the data set on LL/2-luc tumors (setting [10]), with MC38-luc tumors [3] (setting [10]) and with MOC2-luc tumors (setting [10]) was “no edema was detected” throughout. Moreover, the “efficacy of pan-PIT (BLI)” value in the data set with A431 GFP-luc tumor was “did not affect the efficacy of pan-PIT”. The edema formation entry in the data set with MC38-luc tumors [2] (1 day after CTLA4-targeted NIR-PIT) was “suppressed both macroscopically and by MRI”. In addition, the “BLI intensity by day 6 post NIR-PIT” value in the data set with MC38-luc tumors [2] (CTLA4-IR700 50 μg, NIR 50 J cm-2, L-NaAA 80 mg mouse-1 i.p.) is given as “no difference was observed between the two groups”. Besides, the ROS entry in the data set with MC38-luc tumors [2] (CTLA4-targeted NIR-PIT with vs without L-NaAA) is reported as “higher ROS was also detected in the NIR-PIT without L-NaAA group”. The “body weight the day after NIR-PIT” value in the data set with MC38-luc tumors [2] (NIR-PIT with L-NaAA group) is on record as “significant lower weight”. Moreover, in the data set on MC38-luc tumors [2] (three hours after CTLA4-targeted NIR-PIT), the “CTLA4hi cells among total live cells” value is “selectively depleted in both NIR-PIT with and without L-NaAA groups”. Besides, the “edema on T2WI fat-sat MRI” value with MC38-luc tumors [3] (setting [11]) is given as “minimal edema was observed just around the treated tumors”. Besides, the “high signal intensity area on T2WI fat-sat images” value in the data set with MC38-luc tumors [3] (setting [11]) is given as “significantly larger in the group treated without L-NaAA”. For the same compound, the “ROS (chemiluminescence imaging with L-012)” value with MC38-luc tumors [3] (CD44-targeted NIR-PIT with vs without L-NaAA) is reported as “significantly lower intensity (lower ROS) on CLI”. The “cytotoxicity of Pan-PIT in the presence of NaN3” value (“cytotoxicity of Pan-PIT” below) with MDAMB468 GFP-luc cells is given as “restored cytotoxicity of Pan-PIT suppressed by NaN3”.
Regarding `N[C@@H](CS)C(=O)O` [L-cysteine], the “cytotoxicity of Pan-PIT” value in the data set with A431 GFP-luc cells is reported as “could not reverse the effects of NaN3”. In the data set with A431 GFP-luc cells (L-NaAA low or pharmacological concentrations, L-cysteine 0.001 mM), the “cytotoxic damage of Pan-PIT, low concentration of reducing agent” value is listed as “slightly enhanced the cytotoxic damage”. The “cytotoxic damage of Pan-PIT, high concentration of reducing agent” value in the data set with A431 GFP-luc cells (L-NaAA over 1 mM, L-cysteine 0.1 mM or higher) was “compromised the cytotoxicity”.
`C=Cc1c(C)c2cc3nc(c(CC(=O)N[C@@H](CC(=O)[O-])C(=O)[O-])c4[nH]c(cc5nc(cc1[nH]2)C(C)=C5CC)c(C)c4C(=O)[O-])[C@@H](CCC(=O)[O-])[C@@H]3C.[Na+].[Na+].[Na+].[Na+]` [NPe6/Laserphyrin®, mono-L-aspartylchlorin e6]: the extinction coefficient in data set [1] is 40000 M⁻¹ cm⁻¹.
Take `[N-]=[N+]=[N-]` [NaN3, Sodium azide, reference compound]: the “ligand cleavage (remaining IR700)” value in data set [4] was “ligand cleavage decreased”. The “cytotoxicity of Pan-PIT” value with A431 GFP-luc cells is reported as “suppression of NIR-PIT cytotoxicity”.
Regarding `C[Si](C)(CCC[N+](CCCS(=O)(=O)O)(CCCS(=O)(=O)O)CCCS(=O)(=O)O)O[Si]1(O[Si](C)(C)CCC[N+](CCCS(=O)(=O)O)(CCCS(=O)(=O)O)CCCS(=O)(=O)O)n2c3c4ccccc4c2N=C2N=C(N=c4c5ccccc5c(n41)=NC1=NC(=N3)c3ccccc31)c1ccccc12` [Pc 3, Bis{3-[Tris(3-Sulfopropyl)]Ammoniopropyldimethylsilvloxide} Silicon Phthalocyanine], the “solubility of Pc 3 after light exposure” value in [5] is recorded as “dramatically changed its solubility”.
Regarding IL-15: immunoactivator interleukin, in the data set with LL2-luc tumor, the survival result was “increased survival” and the tumor volume entry is listed as “substantially reduced tumor volume”.
On to Ipilimumab: anti-CTLA4 antibody, for which the “patients with gastrointestinal symptoms (irAE)” value in [6] is recorded as “about 40%”.
Turning to Photofrin®, the extinction coefficient in [1] is 1200 M⁻¹ cm⁻¹.
On to pan-IR700, for which the “cancer cell death (incorporation of propidium iodine and MTT assay)” value with mEERL-hEGFR cells (APC 10 μg/mL 1 h, NIR light 690 nm, read 1 h after NIR-PIT) was “cancer cell death was induced by NIR-PIT in an NIR light-dose dependent manner”. In the data set with mEERL-hEGFR cells (without NIR light), the “cell viability, APC alone” value is reported as “Neither NIR light alone nor panitumumab IR700 alone induced significant alterations in cell viability”.
On to panitumumab NIR-PIT, for which the “histologic change of tumor cells (H-E staining)” value in the data set on mEERL-hEGFR tumors [7] was “swelling and vacuolation of the tumor cell”. Also, the tumor volume entry with mEERL-hEGFR tumors [8] (mixed antibody/APC i.v., NIR light 50 J/cm^2 once 1 day later) is recorded as “not significantly decreased”. For the same compound, the “mice in which the tumor was cleared” value in the data set with mEERL-hEGFR tumors [8] (n=12-13) was 1/12.

(Values after patent US20240101685A1, “NEAR INFRARED PHOTOIMMUNOTHERAPY (NIR-PIT) COMBINATION THERAPY TO TREAT CANCER” (THE UNITED STATES OF AMERICA, as represented by the …, priority 2021, published 2024).)
